Measurements reported in ChEMBL document CHEMBL1201862, “PubChem BioAssay data set” (2004).
Calls of active or inactive are those of the source.

What was measured:
Protein Tat = Protein Tat (Human immunodeficiency virus type 1 group M subtype B (isolate HXB2)(HIV-1), UniProt P04608); assay type: functional;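 note: tat binding to TAR RNA read out by fluorescence polarization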
[1] = HepG2 cell cytotoxicity, dose response, cytotoxicity control, cherry-picked samples (AID 1159577); assay type: functional, cell-based
[2] = P. falciparum Dd2 growth inhibitors, dose response, SYBR Green, cherry-picked samples (AID 1159567); assay type: functional, cell-based
[3] = inhibitors of fibronectin matrix deposition, dose response, AH1F cells, Alexa488-FN fluorescence, cherry-picks (AID 1035475); assay type: functional, cell-based
Cytochrome P450 2D6 = Cytochrome P450 2D6 (Homo sapiens, UniProt P10635);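 note: CYP2D6 member of a cytochrome P450 panel assay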
Cytochrome P450 2D6, sequence (P10635 whole entry): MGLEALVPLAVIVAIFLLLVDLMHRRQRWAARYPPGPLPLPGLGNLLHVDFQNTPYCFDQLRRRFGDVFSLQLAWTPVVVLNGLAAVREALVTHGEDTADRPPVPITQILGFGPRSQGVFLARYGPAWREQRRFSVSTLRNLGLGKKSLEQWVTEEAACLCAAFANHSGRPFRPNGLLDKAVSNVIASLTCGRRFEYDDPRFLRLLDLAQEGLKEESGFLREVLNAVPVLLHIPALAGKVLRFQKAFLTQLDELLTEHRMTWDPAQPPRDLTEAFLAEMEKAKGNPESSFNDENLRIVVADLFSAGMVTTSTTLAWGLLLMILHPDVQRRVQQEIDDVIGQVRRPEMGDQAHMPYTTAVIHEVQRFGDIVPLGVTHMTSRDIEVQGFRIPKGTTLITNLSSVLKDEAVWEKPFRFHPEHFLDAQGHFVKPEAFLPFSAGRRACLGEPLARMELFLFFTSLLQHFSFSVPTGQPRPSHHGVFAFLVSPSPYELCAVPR

Ephrin type-A receptor 4 = Ephrin type-A receptor 4 (Mus musculus, UniProt Q03137); experiment: inhibitors of EphA4 binding to KYL peptide, primary screen, biochemical, colorimetric, mouse EphA4 (AID 689); assay type: functional
Ephrin type-A receptor 4, sequence (Q03137 whole entry): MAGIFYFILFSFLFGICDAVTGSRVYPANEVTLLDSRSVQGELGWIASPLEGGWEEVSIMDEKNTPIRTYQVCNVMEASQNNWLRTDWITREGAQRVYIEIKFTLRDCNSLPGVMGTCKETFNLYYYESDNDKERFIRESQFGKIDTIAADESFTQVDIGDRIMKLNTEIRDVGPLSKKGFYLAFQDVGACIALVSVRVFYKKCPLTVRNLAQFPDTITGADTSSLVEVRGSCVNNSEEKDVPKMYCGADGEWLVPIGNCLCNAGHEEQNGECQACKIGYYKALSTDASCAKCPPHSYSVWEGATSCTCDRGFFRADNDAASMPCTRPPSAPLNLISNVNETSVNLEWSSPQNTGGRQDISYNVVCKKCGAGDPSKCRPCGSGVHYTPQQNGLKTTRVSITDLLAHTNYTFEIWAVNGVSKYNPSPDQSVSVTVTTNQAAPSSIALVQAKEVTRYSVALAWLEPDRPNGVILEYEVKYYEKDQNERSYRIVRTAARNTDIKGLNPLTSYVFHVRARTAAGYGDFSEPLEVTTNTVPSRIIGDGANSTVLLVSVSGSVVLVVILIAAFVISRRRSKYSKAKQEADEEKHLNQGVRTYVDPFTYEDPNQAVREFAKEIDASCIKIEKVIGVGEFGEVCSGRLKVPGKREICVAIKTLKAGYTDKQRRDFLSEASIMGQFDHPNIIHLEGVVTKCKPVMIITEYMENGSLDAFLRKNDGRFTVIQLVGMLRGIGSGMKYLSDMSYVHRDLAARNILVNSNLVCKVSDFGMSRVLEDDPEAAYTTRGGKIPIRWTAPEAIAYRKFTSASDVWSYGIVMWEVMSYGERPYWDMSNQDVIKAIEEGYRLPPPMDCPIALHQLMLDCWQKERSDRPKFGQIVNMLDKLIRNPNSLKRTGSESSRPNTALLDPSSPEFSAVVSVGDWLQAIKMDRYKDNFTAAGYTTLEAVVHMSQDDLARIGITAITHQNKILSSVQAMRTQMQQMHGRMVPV

[4] = molecular target: Induced myeloid leukemia cell differentiation protein Mcl-1 (Homo sapiens, UniProt Q07820); assay type: functional
Induced myeloid leukemia cell differentiation protein Mcl-1, sequence (Q07820 whole entry): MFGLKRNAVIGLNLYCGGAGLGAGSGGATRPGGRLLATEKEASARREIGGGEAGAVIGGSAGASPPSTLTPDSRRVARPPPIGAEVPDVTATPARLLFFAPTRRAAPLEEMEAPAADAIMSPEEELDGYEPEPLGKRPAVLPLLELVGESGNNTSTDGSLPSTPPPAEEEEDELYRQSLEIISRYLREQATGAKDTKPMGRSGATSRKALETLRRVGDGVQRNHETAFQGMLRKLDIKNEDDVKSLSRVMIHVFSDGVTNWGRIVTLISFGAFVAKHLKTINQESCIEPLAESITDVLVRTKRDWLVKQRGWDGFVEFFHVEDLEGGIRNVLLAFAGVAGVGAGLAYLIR

Kallikrein-7 = Kallikrein-7 (Homo sapiens, UniProt P49862); experiment: Fluorescence Intensity-based biochemical primary high throughput dose response assay to identify activators of kallikrein-7 (K7) zymogen.
Kallikrein-7, sequence (P49862 whole entry): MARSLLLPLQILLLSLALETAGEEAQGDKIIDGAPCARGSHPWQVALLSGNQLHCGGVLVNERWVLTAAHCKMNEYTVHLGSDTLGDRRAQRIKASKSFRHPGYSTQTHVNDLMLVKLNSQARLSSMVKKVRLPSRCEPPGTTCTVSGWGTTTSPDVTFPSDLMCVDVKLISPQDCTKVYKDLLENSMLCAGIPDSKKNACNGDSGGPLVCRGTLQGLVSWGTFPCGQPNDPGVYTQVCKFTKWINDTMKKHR

[5] = inhibitors of PGC1a acetylation in cells, dose response, cell-based, cherry-picked samples (AID 720514); assay type: functional;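 note: potency may reflect raised or lowered acetylation signal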
Streptokinase A = molecular target: T1, Streptokinase A (Streptococcus pyogenes serotype M1, UniProt P10520); experiment: S. pyogenes streptokinase expression inhibitors, potency, dose response, plasminogen activation absorbance, OD405 (AID 1914); assay type: functional, Streptococcus pyogenes M1 GAS;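 note: secreted streptokinase activity via plasminogen activation per viability signal from cell pellet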
T1 sequence (P10520 whole entry): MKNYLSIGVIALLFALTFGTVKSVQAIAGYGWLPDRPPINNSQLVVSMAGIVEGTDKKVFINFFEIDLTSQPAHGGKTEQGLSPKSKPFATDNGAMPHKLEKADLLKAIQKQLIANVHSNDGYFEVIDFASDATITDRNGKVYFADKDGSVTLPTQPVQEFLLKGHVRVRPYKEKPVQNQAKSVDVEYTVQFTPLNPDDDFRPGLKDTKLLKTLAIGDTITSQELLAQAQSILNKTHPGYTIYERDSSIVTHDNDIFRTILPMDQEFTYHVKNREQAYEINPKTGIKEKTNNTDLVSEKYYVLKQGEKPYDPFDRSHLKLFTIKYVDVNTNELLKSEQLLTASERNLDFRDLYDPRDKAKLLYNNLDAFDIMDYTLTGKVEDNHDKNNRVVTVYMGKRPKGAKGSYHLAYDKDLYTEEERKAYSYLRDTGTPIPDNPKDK

[6] = inhibitors of intracellular T. cruzi replication, confirmation, NIH3T3 host cells, beta-gal luminescence (AID 2044); assay type: functional, cell-based;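 note: intracellular parasites grown in NIH/3T3 mouse fibroblasts as host cells; luminescent beta-galactosidase reporter signal from transgenic T. cruzi replicating inside host cells; inhibitors lower the luminescence signal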
[7] = tested on: Streptococcus sp. 'group A'; experiment: growth inhibition of control SK(-) GAS strain, dose response, counter-screen for streptokinase expression inhibitor project, luminescence, kanamycin, BacTiterGlo, confirmation (AID 1900); assay type: functional, organism-based
[8] = HepG2 cell cytotoxicity, dose response, cytotoxicity control, ATP luminescence, cherry-pick, activator set 2 (AID 1053143); assay type: functional, cell-based
[9] = cytotoxicity toward NIH3T3 fibroblasts, dose response, counter-screen, cell-based, ATP luminescence, mouse fibroblasts (AID 2010); assay type: functional;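 note: cells exposed to compound for about 90 hours before reading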
Streptococcus = experiment: Group A Streptococcus viability loss, dose response, counter-screen for streptokinase expression inhibitor project, luminescence, BacTiterGlo (AID 1915); assay type: functional, organism-based;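 note: potency for reduction of bacterial viability or growth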
cells [10] = experiment: cells
[11] = molecular target: T2, Oxysterols receptor LXR-beta (Homo sapiens, UniProt P55055); assay type: functional, cell-based;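 note: Cell-based luminescence dose-response assay of agonist activity at LXR, run as a confirmatory counterscreen to a daf-12 agonist screen; HEK293 cells with Gal4-LXR fusion and GAL4-driven luciferase reporter; agonist potency from rising luciferase signal of a Gal4-LXR reporter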
T2 sequence (P55055 whole entry): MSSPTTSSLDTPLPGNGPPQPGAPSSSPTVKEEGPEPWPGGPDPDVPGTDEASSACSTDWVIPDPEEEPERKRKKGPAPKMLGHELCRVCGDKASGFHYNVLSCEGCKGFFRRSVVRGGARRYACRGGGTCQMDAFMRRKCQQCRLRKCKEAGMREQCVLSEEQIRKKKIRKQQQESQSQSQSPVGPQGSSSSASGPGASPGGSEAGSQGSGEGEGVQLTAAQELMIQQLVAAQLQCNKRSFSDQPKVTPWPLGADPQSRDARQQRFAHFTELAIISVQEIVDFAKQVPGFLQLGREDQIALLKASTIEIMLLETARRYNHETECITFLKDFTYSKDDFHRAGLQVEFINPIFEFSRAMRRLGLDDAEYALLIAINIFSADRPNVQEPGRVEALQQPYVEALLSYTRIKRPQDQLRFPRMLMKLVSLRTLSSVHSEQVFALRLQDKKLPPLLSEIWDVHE

Caspase-6 = Caspase-6 (Homo sapiens, UniProt P55212); experiment: human caspase-6 inhibitors, dose response, biochemical, VEID-R110 fluorescence, cherry-pick (AID 720632)
Caspase-6, sequence (P55212 24-179 limits assumed): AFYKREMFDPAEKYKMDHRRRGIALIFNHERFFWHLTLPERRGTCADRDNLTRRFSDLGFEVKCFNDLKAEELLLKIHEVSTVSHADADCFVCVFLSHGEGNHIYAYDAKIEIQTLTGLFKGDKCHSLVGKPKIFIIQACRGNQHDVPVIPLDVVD
Caspase-6, sequence (P55212 194-293 limits assumed): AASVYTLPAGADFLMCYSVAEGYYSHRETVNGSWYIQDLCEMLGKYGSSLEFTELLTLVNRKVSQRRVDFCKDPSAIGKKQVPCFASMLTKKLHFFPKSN

cells [12] = experiment: cells; remark: listed apart in the source
Genome polyprotein = Genome polyprotein (Hepatitis C virus, UniProt Q2Q167); experiment: HCV core protein dimerization inhibitors, dose response, biochemical, TR-FRET (AID 2159); parameters: species or system Hepacivirus hominis;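 note: blocks dimerization of HCV core protein measured by TR-FRET between tagged core106 pairs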
[13] = molecular target: Luciferin 4-monooxygenase (Photinus pyralis, UniProt P08659); experiment: Counter Screen for Luciferase-based Assay Positives. [Related pubchem assays: 620, 618, 411 ]
Luciferin 4-monooxygenase, sequence (P08659 whole entry): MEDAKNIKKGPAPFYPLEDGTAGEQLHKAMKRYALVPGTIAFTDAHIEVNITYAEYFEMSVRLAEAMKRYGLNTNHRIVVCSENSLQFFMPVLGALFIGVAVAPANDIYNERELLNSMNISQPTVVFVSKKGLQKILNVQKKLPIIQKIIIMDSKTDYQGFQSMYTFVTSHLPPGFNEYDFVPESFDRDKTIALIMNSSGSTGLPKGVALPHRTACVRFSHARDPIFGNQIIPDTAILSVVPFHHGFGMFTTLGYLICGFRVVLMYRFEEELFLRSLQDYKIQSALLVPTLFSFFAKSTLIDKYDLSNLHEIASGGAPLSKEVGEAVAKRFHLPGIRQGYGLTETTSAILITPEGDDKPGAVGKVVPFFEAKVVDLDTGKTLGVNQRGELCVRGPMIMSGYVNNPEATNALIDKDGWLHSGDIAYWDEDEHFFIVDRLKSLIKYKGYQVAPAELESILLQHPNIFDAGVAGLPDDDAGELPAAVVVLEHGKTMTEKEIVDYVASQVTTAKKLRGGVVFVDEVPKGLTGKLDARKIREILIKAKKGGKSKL

HT-1080 = experiment: cytotoxicity in HT1080 fibrosarcoma cells, cell-based, fluorescence readout (AID 620); assay type: functional; details: Homo sapiens
[14] = Luminescence Cell-Based Dose Confirmation HTS to Identify Activators of 5'UTR Stem-Loop Driven Alpha-Synuclein mRNA Translation in H4 Neuroglioblastoma Cells. [Related pubchem assays: 1829 (Project Summary), 1814 (Primary HTS)]; assay type: functional
cells [15] = details: A549
[16] = molecular target: Peroxisome proliferator-activated receptor gamma/Nuclear receptor coactivator 1 (Homo sapiens, UniProt P37231); assay type: functional;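 note: agonist potency as compounds enhance coactivator SRC-1 recruitment to PPARgamma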
[17] = molecular target: Peroxisome proliferator-activated receptor gamma/Nuclear receptor coactivator 3 (Homo sapiens, UniProt P37231); assay type: functional;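 note: agonist potency for raising coactivator recruitment to the receptor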
Peroxisome proliferator-activated receptor gamma/Nuclear receptor coactivator 3, sequence (P37231 whole entry): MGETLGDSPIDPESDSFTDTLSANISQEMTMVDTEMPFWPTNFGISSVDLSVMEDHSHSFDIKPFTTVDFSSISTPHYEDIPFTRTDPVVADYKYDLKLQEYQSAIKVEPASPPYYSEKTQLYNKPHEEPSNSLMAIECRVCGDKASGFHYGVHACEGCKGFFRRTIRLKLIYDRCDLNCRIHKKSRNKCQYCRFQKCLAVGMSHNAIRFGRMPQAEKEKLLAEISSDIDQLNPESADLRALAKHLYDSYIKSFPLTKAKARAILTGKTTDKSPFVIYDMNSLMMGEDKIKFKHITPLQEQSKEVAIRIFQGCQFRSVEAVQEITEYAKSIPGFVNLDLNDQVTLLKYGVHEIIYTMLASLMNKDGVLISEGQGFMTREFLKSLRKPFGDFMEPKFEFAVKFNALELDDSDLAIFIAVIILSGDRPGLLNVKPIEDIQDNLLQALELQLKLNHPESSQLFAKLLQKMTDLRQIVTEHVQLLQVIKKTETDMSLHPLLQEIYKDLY
Peroxisome proliferator-activated receptor gamma/Nuclear receptor coactivator 3, sequence (Q9Y6Q9 whole entry, further chain): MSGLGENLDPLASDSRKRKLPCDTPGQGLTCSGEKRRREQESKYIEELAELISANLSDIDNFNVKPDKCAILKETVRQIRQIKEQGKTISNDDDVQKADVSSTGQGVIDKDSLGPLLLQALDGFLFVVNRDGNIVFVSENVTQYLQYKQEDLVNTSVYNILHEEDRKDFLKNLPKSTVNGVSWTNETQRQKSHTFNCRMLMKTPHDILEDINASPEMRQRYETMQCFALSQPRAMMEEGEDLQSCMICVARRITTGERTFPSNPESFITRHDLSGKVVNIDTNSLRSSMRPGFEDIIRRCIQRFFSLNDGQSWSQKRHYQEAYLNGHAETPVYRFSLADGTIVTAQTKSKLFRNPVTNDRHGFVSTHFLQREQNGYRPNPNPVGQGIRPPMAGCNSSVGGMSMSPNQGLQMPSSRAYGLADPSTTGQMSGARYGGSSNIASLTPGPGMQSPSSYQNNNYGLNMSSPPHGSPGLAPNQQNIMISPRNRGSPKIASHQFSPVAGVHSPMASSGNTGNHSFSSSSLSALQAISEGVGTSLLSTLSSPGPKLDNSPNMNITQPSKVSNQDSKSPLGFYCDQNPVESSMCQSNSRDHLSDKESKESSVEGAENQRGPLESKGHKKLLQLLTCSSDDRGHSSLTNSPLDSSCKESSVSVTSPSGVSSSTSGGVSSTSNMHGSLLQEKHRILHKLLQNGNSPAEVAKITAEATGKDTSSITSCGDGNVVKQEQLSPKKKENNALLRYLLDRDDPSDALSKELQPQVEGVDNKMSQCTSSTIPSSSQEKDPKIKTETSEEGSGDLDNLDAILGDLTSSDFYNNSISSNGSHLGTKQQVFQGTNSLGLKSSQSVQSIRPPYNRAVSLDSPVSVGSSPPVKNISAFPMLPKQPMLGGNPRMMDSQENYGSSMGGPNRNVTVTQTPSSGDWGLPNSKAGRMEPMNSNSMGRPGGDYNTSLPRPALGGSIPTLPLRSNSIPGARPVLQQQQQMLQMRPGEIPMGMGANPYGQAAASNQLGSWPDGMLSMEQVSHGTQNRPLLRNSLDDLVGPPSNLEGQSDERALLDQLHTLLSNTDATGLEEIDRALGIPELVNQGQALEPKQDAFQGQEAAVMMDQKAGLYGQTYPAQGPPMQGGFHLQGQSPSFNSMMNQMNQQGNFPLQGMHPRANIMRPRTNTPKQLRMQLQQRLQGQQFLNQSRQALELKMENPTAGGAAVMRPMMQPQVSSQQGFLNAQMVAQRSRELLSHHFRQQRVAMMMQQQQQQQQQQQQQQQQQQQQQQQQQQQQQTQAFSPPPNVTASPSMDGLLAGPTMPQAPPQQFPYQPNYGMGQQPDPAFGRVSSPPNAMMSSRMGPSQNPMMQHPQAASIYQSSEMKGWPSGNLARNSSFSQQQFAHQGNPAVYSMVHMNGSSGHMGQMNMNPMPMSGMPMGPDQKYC

[18] = molecular target: Peroxisome proliferator-activated receptor gamma/Nuclear receptor coactivator 2 (Homo sapiens, UniProt P37231); assay type: functional;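 note: agonist potency for raising coactivator recruitment to the receptor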
H4 = experiment: Luminescence Cell-Based Dose Response HTS to Identify Activators of 5'UTR Stem-Loop Driven Prion Protein mRNA Translation in H4 Neuroglioblastoma Cells. [Related pubchem assays: 1829 (Project Summary), 1814 (Primary HTS)]; assay type: functional; details: Homo sapiens
[19] = Luminescence Cell-Based Dose Response HTS to Identify Activators of Luciferase Translation or Activity in H4 […] Cells. [Related pubchem assays: 1829 (Project Summary), 1814 (Primary HTS)]; assay type: functional

Protein Tat, sequence (P04608 whole entry): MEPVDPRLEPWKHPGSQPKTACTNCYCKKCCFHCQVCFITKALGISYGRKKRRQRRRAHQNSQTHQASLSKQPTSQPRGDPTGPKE

For `COC(=O)c1ccc(C)c(NC(=O)CCSc2ccccc2)c1`, the IC50 (Protein Tat) was 65.1 µM (inconclusive).
For `COc1ccc2c3c([nH]c2c1)[C@H](CO)N(S(=O)(=O)c1ccc(C)cc1)CC31CN(Cc2ccccc2)C1`, the AC50 [1] was > 39 µM (inactive) and the AC50 [2] was 17.5 µM (active).
For `O=C(Nc1ccccc1F)N1C[C@H]2[C@@H](c3ccccc31)[C@H](CO)N2C(=O)C1CC1`, the AC50 [3] was > 70 µM (inactive).
For `CCNc1ccc(Br)cc(C(=O)/C=C/c2ccc3c(c2)OCO3)c1=O`, the AC50 (Cytochrome P450 2D6) was 8.91 µM (inconclusive), the IC50 (Ephrin type-A receptor 4) was 5.22 µM (active) and the IC50 [4] was 2.58 µM (active). For the same molecule, the IC50 (Protein Tat) was 29.1 µM (inconclusive).
In the case of `Cc1sc(-c2ccncc2)nc1OC(=O)c1ccc(F)cc1F`, the EC50 (Kallikrein-7) is reported as 26.5 µM (inactive).
For `CO[C@@H]1CN(C)C(=O)c2ccc(NC(=O)c3ccc(Oc4ccccc4)cc3)cc2OC[C@@H](C)N(C(C)=O)C[C@H]1C`, the AC50 [5] was 24.2 µM (active).
For `O=C(Nc1nc2cc3c(cc2s1)OCCO3)c1ccc([N+](=O)[O-])o1`, the EC50 (Streptokinase A) was > 150 µM (not active), the EC50 [6] was 1.78 µM (active) and the EC50 [7] was 16.6 µM (active). For the same molecule, the AC50 [8] was 26 µM (active), the EC50 [9] was > 60 µM (not active) and the EC50 (Streptococcus) was > 150 µM (not active).
In the case of `COc1cc(/C=C2\SC(=S)N(Nc3ncc(C(F)(F)F)cc3Cl)C2=O)cc(OC)c1OC`, the IC50 (Ephrin type-A receptor 4) is reported as 3.57 µM (active).
In the case of `Cc1cccc(Nc2nc(-c3ccccc3)cs2)n1`, the EC50 (cells [10]) is reported as > 67.5 µM (inactive) and the EC50 [11] is reported as > 67.5 µM (inactive).
In the case of `C[C@@H]1CN([C@H](C)CO)S(=O)(=O)c2ccc(C3=CCCCC3)cc2O[C@H]1CN(C)Cc1ccccc1`, the AC50 [5] is reported as 11.4 µM (active).
In the case of `Cc1ccc(S(=O)(=O)N[C@H]2CC[C@H](CCn3cc(C4CCCC4)nn3)O[C@@H]2CO)cc1`, the AC50 [1] is reported as > 39 µM (inactive) and the AC50 [2] is reported as 13.6 µM (active).
With `O=C1CC(C(=O)Nc2ccc(Br)cc2)C2(CCCC2)O1` (stereo not drawn) the AC50 (Caspase-6) was 6.92 µM (active).
With `COc1ccc(C2C(C#N)=C(N)Oc3cc(O)ccc32)cc1Cl` (stereo not drawn) the AC50 (cells [12]) was 19.9 µM (active).
For `Cc1cccc2c(N=Nc3ccc(S(=O)(=O)Nc4ccc(Cl)cc4)cc3[N+](=O)[O-])c(O)[nH]c12`, the IC50 (Genome polyprotein) was > 49.8 µM (not active).
With `COc1cccc(-c2nc3cc(C)ccc3o2)c1` the EC50 (cells [10]) was > 67.6 µM (inactive), the EC50 [13] was > 100 µM (not active) and the AC50 [8] was 26 µM (active). The EC50 (HT-1080) was > 50 µM (not active) and the EC50 [11] was > 67.6 µM (inactive).
For `Cc1cccn2c(=O)c3cc(C(=O)NCCN4CCOCC4)c(=N)n(CCc4ccccc4)c3nc12`, the EC50 [14] was > 120 µM (not active), the AC50 (cells [15]) was 31.4 µM (active) and the EC50 [16] was > 79.4 µM (not active). The AC50 (cells [12]) was 1.28 µM (active), the EC50 [17] was > 79.4 µM (not active) and the EC50 [18] was > 79.4 µM (not active). For the same molecule, the EC50 (H4) was > 120 µM (not active) and the EC50 [19] was 11 µM (active).
